Test results from patent US20250313860A1, “EXPRESSION OF EXOGENOUS PROTEINS IN DONOR PLATELETS TREATED WITH LIPID NANOPARTICLES” (THE UNIVERSITY OF BRITISH COLUMBIA, priority 2022, published 2025).

Key:
[1] = system: human platelets; experiment: Platelet responsiveness to agonists ADP and thrombin (CD62P flow cytometry); type: cell-based; settings: transfected and control untreated platelets, FIG. 3A
Procedure: (§1) Platelets untreated or treated with CL4H6 POPC LNP were activated after 2 h with 0.1 U mL-1 thrombin from human plasma (MilliporeSigma Canada Ltd, Oakville, ON) or 10 μM Chrono-Par® ADP reagent (Chrono-Log, Havertown, PA) in Tyrode's-HEPES buffer pH 7.4 (134 mM NaCl, 2.9 mM KCl, 0.34 mM NaH2PO4, 10 mM HEPES, 5 mM D-glucose). After 4 h LNP treatment, platelets were collected for flow cytometry and the remaining sample was centrifuged at 250×g for 10 min, with the pellet and supernatant fractions collected for luciferase assay.
Platelet responsiveness to agonists ADP or thrombin was measured by flow cytometry staining using PE-conjugated mouse anti-human CD62P labeling, as described in the Materials and Methods.

[2] = system: platelets transfected with mRNA-LNP; experiment: Intracellular and extracellular NanoLuc after agonist activation of transfected platelets; type: cell-based, human; settings: after agonist stimulation of transfected platelets; for intracellular NanoLuc level (cell pellet): FIG. 4D; for extracellular NanoLuc level (supernatant): FIG. 4E
Procedure: as §1
Platelets were transfected with mRNA-LNP encoding NanoLuc, followed by activation with agonists ADP or thrombin. Intracellular and extracellular protein was separated by centrifugation, and enzymatic activity assays were used to measure exogenous protein levels in both fractions as described in the Materials and Methods.

[3] = system: platelets transfected with mRNA-LNP; experiment: Cycloheximide treatment of mRNA-LNP transfected platelets; type: cell-based, human
Source text: Platelets were transfected with mRNA encoding nanoluciferase (NanoLuc) encapsulated in LNP formulation using ALC0315 and DOPC immediately preceding treatment with cycloheximide, followed by enzymatic assays of nanoluciferase activity, and activation by flow cytometry using PE-conjugated mouse anti-human CD62P labeling, as described in the Materials and Methods.

Compound	increase of CD62P levels by agonist [1]	intracellular NanoLuc level (cell pellet) [2]	extracellular NanoLuc level (supernatant) [2]	exogenous protein synthesis in transfected platelets ([3]; LNP with ALC0315 and DOPC, FIG. 5A)	mRNA-LNP uptake in transfected platelets ([3]; presence or absence of cycloheximide, FIG. 5B)
Nc1ncnc2c1ncn2[C@@H]1O[C@H](COP(=O)(O)OP(=O)(O)O)[C@@H](O)[C@H]1O [ADP]	mildly	unchanged	unchanged	–	–
C[C@@H]1C[C@@H]([C@H](O)CC2CC(=O)NC(=O)C2)C(=O)[C@@H](C)C1 [cycloheximide]	–	–	–	inhibited	no statistically significant effect
thrombin	substantially	decreased	decreased	–	–
